In the series the test system is liver. In words: Detection of indocyanine green across SWIR wavelengths in vivo (hepatobiliary clearance). The following applies: mouse, intravenous 1.7 mg/kg, SWIR fluorescence detection. On the procedure:
When injected into a living system, indocyanine green is metabolized by the liver and excreted by the liver and bile ducts by a process called hepatobiliary clearance. This process was observed, noninvasively, by injecting a solution of indocyanine green intravenously into a mouse and using an SWIR imaging system as described herein to observe the fluorescence of indocyanine green. The dye was injected at a dose of 1.7 mg/kg which is below the maximum recommended dose of indocyanine green in humans. […] Despite the fact that 1500 nm is far from the peak emission of indocyanine green, there is sufficient emission intensity from the tail of the emission peak in this wavelength region to obtain a SWIR fluorescence image. Separately, hepatobiliary excretion of ICG into the small intestine in a mouse was also imaged using a near video rate imaging of 19.7 frames per second using a 1200 nm long-pass filter, which enabled capturing the peristaltic movements of the small intestine. Although the frame rate was slower, 2.0 frames per second, it was possible to image the ICG clearance using a 1500 nm long-pass filter, capturing wavelengths between roughly 1500 and 1620 nm.

With `CC1(C)C(/C=C/C=C/C=C/C=C2\N(CCCCS(=O)(=O)O)c3ccc4ccccc4c3C2(C)C)=[N+](CCCCS(=O)(=O)[O-])c2ccc3ccccc3c21` [ICG, indocyanine green], the “accumulation in the liver” value is recorded as “observed”.

(Values after patent US11579088B2, “Device and method for imaging shortwave infrared fluorescence” (Massachusetts Institute of Technology, priority 2016, dated 2023).)
